Structures are written as SMILES. Where a name gives a salt, the structure may show the parent alone. Read-outs that look alike come from different tables or passages of the source.

Data set [1] in a line: in vivo. The settings on record: rhesus monkey, topical or ocular. The protocol:
Male rhesus monkeys weighting 10-14 Kg can be used as the subject. An appropriate area of the monkey's chest is shaved 24 hours before drug application.
Drug formulations comprising the PAEC are applied to a certain area of the chest. The monkey is restrained in a chair to prevent it from touching its chest.
Blood samples are taken at appropriate intervals after the application. The heparinized blood is centrifuged, and the plasma removed and stored at -20° C. until analyzed.
This example show in vivo plasma metoclopramide.HCl levels with a topical gel formulation.
200 mg of metoclopramide.HCl was dissolved in 4 ml of 10% C12 OH in a 1:1 volume mixture of MP/1,2-propanediol. To this solution was added 160 mg of Klucel (hydroxypropylcellulose type HF; Hercules Inc.) and the same stirred thoroughly to obtain a uniform gel. 1.0 ml of the gel was applied to 49 cm^2 of the chest area of the rhesus monkey; the applied area was left open to the air during the experiment.
In Examples 7 and 10, the in vivo Rhesus monkey test earlier described was followed except for modifying as described in Example 7.
49 cm^2 of a polyester non-woven cloth (230 mg) impregnated with 1 ml of 25% C12 OH in a 2:1 volume mixture of MP/1,2-propanediol containing 200 mg of Indomethacin was applied to the upper back of a rhesus monkey; the applied area was occluded with Saran® film.
The plasma level of Indomethacine was analyzed by conventional HPLC.
The in vivo procedure of Example 7 was duplicated except for using propranolol as the active agent in place of the NSAID used, e.g., Indomethacin.

The nature of data set [2]: In vitro skin penetration study with rat skin diffusion cell technique (active agent flux, 8 hours). The settings on record: 25 mg in 1 ml. An excerpt: Rat full thickness skins were used in the diffusion cell method of Michaels, AlChE Journal, 21 [5], 985-996, 1975. The rat skin was mounted in the diffusion cell in a vertical position between the upstream and the downstream compartments; the exposed area of the skin approximated 4.15 cm^2.
The skin was excised from the shaved abdominal site of male albino rats weighing 150~300 g, and washed with normal saline solution after the subcutaneous fat was carefully removed with scissors.
The active agent/PAEC solution of known concentration was added to the upper compartment of the cell, which was exposed to the epithelial side of the skin and a normal saline solution was placed in the lower compartment.
The penetration rate was studied in a thermostated bath at 30° C. […]
The flux of the active agent is given in the terms of μg/cm^2 /8 hours. 25 Volume percent component A with respect to component A and component B volume with or without diols and/or triols was used in the composition along with 2.5 weight percent of the active agent. For purposes of comparison, in one instance the result for an adjuvant alone with a diol and/or triol is given.
1,2-propanediol was used as a diol moderator. […]
In the following Examples 6, 8, 9, 11 and 12, in vitro transdermal penetration was again analyzed followed the method of Michaels, AIChE Journal, 21, [5], pp. 985-996 (1975), according to the earlier described procedure. The sample volume was 1 ml unless otherwise indicated and flux of the active agent is given in μg/cm^2 /8 hours. Al percents are volume percents based on the total volume of the system unless otherwise indicated.
25 mg of the NSAID, Indomethacin, Diclofenac sodium or Ibuprofen in 1 ml of various systems were used. […]

`COc1ccc2c(c1)c(CC(=O)O)c(C)n2C(=O)c1ccc(Cl)cc1` [Indomethacin]: the concentration at 1 h in data set [1] (in vivo, 1 hour after application, 200 mg in 1 ml 25% C12 OH in 2:1 MP/1,2-propanediol, 49 cm^2 cloth, upper back, occluded, read-out: Indomethacin plasma level) was determined as 0.619 µg/mL. In data set [1] (in vivo, 3 hours after application, 200 mg in 1 ml 25% C12 OH in 2:1 MP/1,2-propanediol, 49 cm^2 cloth, upper back, occluded, read-out: Indomethacin plasma level), the concentration at 3 h amounted to 0.452 µg/mL. In data set [1] (in vivo, 5 hours after application, 200 mg in 1 ml 25% C12 OH in 2:1 MP/1,2-propanediol, 49 cm^2 cloth, upper back, occluded, read-out: Indomethacin plasma level), the concentration at 5 h was 0.388 µg/mL. Moreover, the concentration at 7 h in data set [1] (in vivo, 7 hours after application, 200 mg in 1 ml 25% C12 OH in 2:1 MP/1,2-propanediol, 49 cm^2 cloth, upper back, occluded, read-out: Indomethacin plasma level) came out at 0.429 µg/mL. Further, the “Relative Flux” value is listed as 1.0 in data set [2] (Indomethacin, 25% C12 OH in MP (reference)) and 0.73 in data set [2] (Indomethacin, 25% C12 OH in a 2:1 volume mixture of MP/1,2-propanediol, relative to 25% C12 OH in MP).

In data set [1] (in vivo), `CCN(CC)CCNC(=O)c1cc(Cl)c(N)cc1OC` [metoclopramide.HCl] gave a concentration at 1 h of 0.075 µg/mL, a concentration at 2 h of 0.146 µg/mL, a concentration at 3 h of 0.178 µg/mL and a concentration at 5 h of 0.121 µg/mL. The compound further came in with a concentration at 7 h in data set [1] (in vivo) of 0.093 µg/mL.

Take `CC(C)Cc1ccc(C(C)C(=O)O)cc1` (centres unmarked) [Ibuprofen]: the “Relative Flux” value is given as 1.0 in data set [2] (Ibuprofen, 25% C12 OH in N-methyl piperidone (reference)) and 0.48 in data set [2] (Ibuprofen, 25% C12 OH in a 2:1 volume mixture of N-methyl piperidone/1,2-propanediol, relative to 25% C12 OH in N-methyl piperidone).

As for `CC(C)NCC(O)COc1cccc2ccccc12` (centres unmarked) [propranolol], the concentration at 1 h in data set [1] (plasma, 200 mg, 1 hour after application, procedure of Example 7 (25% C12 OH in 2:1 MP/1,2-propanediol, 49 cm^2, upper back, occluded), read-out: Propranolol plasma level) stood at 0.03 µg/mL. The concentration at 3 h in data set [1] (plasma, 200 mg, 3 hours after application, procedure of Example 7 (25% C12 OH in 2:1 MP/1,2-propanediol, 49 cm^2, upper back, occluded), read-out: Propranolol plasma level) was determined as 0.115 µg/mL. Moreover, the concentration at 5 h in data set [1] (plasma, 200 mg, 5 hours after application, procedure of Example 7 (25% C12 OH in 2:1 MP/1,2-propanediol, 49 cm^2, upper back, occluded), read-out: Propranolol plasma level) was 0.13 µg/mL. Also, the concentration at 7 h in data set [1] (plasma, 200 mg, 7 hours after application, procedure of Example 7 (25% C12 OH in 2:1 MP/1,2-propanediol, 49 cm^2, upper back, occluded), read-out: Propranolol plasma level) turned out to be 0.09 µg/mL.

The values are drawn from patent US5128376A, “Method for percutaneously administering physiologically active agents using an adjuvant a solvent and a diol moderator” (priority 1990, dated 1992).
